{
  "source": "paper PMC10111420",
  "about": "“Optimization of Host Cell-Compatible, Antimicrobial Peptides Effective against Biofilms and Clinical Isolates of Drug-Resistant Bacteria” (ACS Infectious Diseases, 2023)",
  "key": {"[1]": {"test_system": "P. aeruginosa and MRSA wound biofilms", "experiment": "SEM of Tegaderm wound dressing, both bacteria pooled", "assay_type": "in vivo, CD1 mice", "conditions": "68 images from treated animals, Day 3 Tegaderm", "description": "(§1) The Tegaderm dressing used in the murine wound model is an excellent substrate for bacterial adhesion and biofilm formation.[5],[15] […] We imaged three to four randomly selected areas of each Tegaderm sample at two magnifications each. Each image is scored for the presence/absence of bacterial cells, either rod-shaped P. aeruginosa, ∼1 μm in diameter, or spherical MRSA cocci, ∼0.9 μm in diameter. Images are also scored for biofilm-like structures defined by having multiple bacteria embedded in an obvious three-dimensional matrix. These distinctions are shown by representative images of the fixed Tegaderm dressings in Figure 9A,B. In vehicle control samples, we observed that P. aeruginosa frequently forms an open, three-dimensional matrix in which many cells are entangled in μm-long fibers. We observed that MRSA also forms a matrix in which cells are close-packed in strands that comprise a large-scale mesh. Every SEM image (68/68) from vehicle control samples of the two bacteria contained obvious visible bacteria, and most of these images contained ≥50 individual cells. In samples from peptide-treated animals, 57 of 68 (84%) of images had no visible bacteria. […] We performed a statistical analysis of observed bacteria and biofilms using the binomial equation. P-values for all comparisons of treated vs vehicle were less than 0.001. […]"}, "[2]": {"test_system": "human RBCs", "assay_type": "cell-based", "in_short": "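Washed human O+ erythrocytes (2 × 10^8 cells/mL stock, mixed 1:1) were incubated with peptide serially diluted from 100 μM in PBS for 1 h at 37 °C. Released hemoglobin was read at 410 nm in supernatant; fractional hemolysis calculated against 1% Triton (100%) and 0% lysis controls, averaged over ≥3 experiments.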"}, "[3]": {"test_system": "P. aeruginosa wound biofilms", "experiment": "SEM of Tegaderm wound dressing, P. aeruginosa", "assay_type": "in vivo, CD1 mice", "conditions": "dressing removed on Day 3, treated three times a day", "description": "as §1"}, "[4]": {"test_system": "Acinetobacter baumannii (PDR) Tulane isolate", "conditions": "PDR) Tulane isolate"}, "[5]": {"test_system": "K. pneumoniae clinical isolates", "protocol": "Subcultures, prepared by inoculating 25 mL of fresh tryptic soy broth (TSB) with 200 μL of an overnight culture, were grown to log phase (OD600 = 0.3–0.6), after which cell counts were determined by measuring the OD600 (1.0 = 5 × 10^8 CFU/mL for E. coli, 4 × 10^8 CFU/mL for K. pneumoniae, 4 × 10^8 CFU/mL for P. aeruginosa, 1.5 × 10^8 CFU/mL for S. aureus). Bacterial cells were diluted to appropriate concentrations in TSB. We used the following clinical bacterial isolates of Klebsiella pneumoniae in this study: Strains KP6, KP46, NDM-1, KP396, and KP398 have been previously described.[43] ST58 strains C2, C3, and I2 are also described.[41] […] MRSA, […] S. aureus strain, is SAP400, a USA400 strain of community-acquired MRSA. […] The second independent set of K. pneumoniae isolates are previously described.[20],[21]\nThe antibiotics were serially diluted by a factor of 2:3 horizontally across 96-well plates from Corning, 25 μL per well. One column was reserved for controls. For the assays performed in the presence of RBC, type O+ human RBCs at 0 or 2.5 × 10^9 cells/mL were added in 50 μL aliquots to all wells. Following a 30-min incubation, 50 μL of TSB, inoculated with 5 × 10^5 CFU/mL, was added to all wells, and plates were incubated overnight at 37 °C. Following overnight incubation at 37 °C, the OD600 was measured (values of less than 0.1 were considered sterilized). To assess bacterial growth in the assays with RBC, the OD600 was measured after a second-day inoculation with 10 μL of solution from the original plate added to 100 μL of sterile TSB followed by overnight incubation.\nExperiments were repeated four to eight times independently, with pairs of replicate measurements on each 96-well plate. After overnight growth, optical densities were measured at 660 nm and the sterilized wells were identified by having O.D. < 0.08. Nonsterilized wells were nearly opaque with OD > 0.6. For each measurement, we recorded the largest dilution that sterilized the bacteria. Statistics are done on dilution numbers, rather than calculated concentrations, because only the former have normal distributions."}, "[6]": {"test_system": "K. pneumoniae isolates", "experiment": "Susceptibility of all K. pneumoniae isolates (both sets)", "assay_type": "cell-based, Klebsiella pneumoniae", "conditions": "both sets of clinical isolates", "description": "In parallel experiments, resistance of P. aeruginosa to multiple conventional antibiotics grew rapidly over just a few passages.[5] […] The mechanism of resistance avoidance is currently unknown. Further studies will be required to understand the mechanistic basis for the resistance avoidance of D-CONGA-Q7 against K. pneumoniae isolates. These insights will be particularly important for the advancement of resistance-avoiding AMPs into the clinic."}},
  "note": "Where a SMILES comes first, the peptide text is derived from it. [ ]: non-standard residue; d: D form.",
  "data": [
    {"smiles": "CC(C)C[C@@H](NC(=O)[C@@H](CCC(N)=O)NC(=O)[C@@H](CCCNC(=N)N)NC(=O)[C@@H](CCCNC(=N)N)NC(=O)[C@@H](C)NC(=O)[C@@H](Cc1c[nH]c2ccccc12)NC(=O)[C@@H](CCCNC(=N)N)NC(=O)[C@H](N)CCCNC(=N)N)C(=O)N[C@H](C)C(=O)N[C@H](Cc1ccccc1)C(=O)N[C@H](C)C(=O)N[C@H](Cc1ccccc1)C(=O)N[C@H](CCCNC(=N)N)C(=O)N[C@H](CCCNC(=N)N)C(N)=O", "note": "[D-CONGA-Q7] (H-[dR][dR][dW][dA][dR][dR][dQ][dL][dA][dF][dA][dF][dR][dR]-NH2; N-terminus assumed)", "values": [
      {"measurement": "Biofilm observed in SEM images", "setting": "[1]", "value": "no biofilm was observed"},
      {"measurement": "Hemolysis at 100 μM (fractional hemolysis)", "setting": "[2]", "value": 0.07},
      {"measurement": "P. aeruginosa: Bacteria present (SEM images of Tegaderm)", "setting": "[3]; images with bacteria / all random images", "value": "8/33"},
      {"measurement": "P. aeruginosa: Biofilm present (SEM images of Tegaderm)", "setting": "[3]; images with biofilm / all random images", "value": "0/33"},
      {"measurement": "MIC, AB (PDR)Tulane", "setting": "[4]", "value": 1.1, "unit": "µM"},
      {"measurement": "K. Pneumoniae Isolate MIC, 1000527", "setting": "[5]", "value": 6.8, "unit": "µM"},
      {"measurement": "K. Pneumoniae Isolate MIC, 1002565", "setting": "[5]", "value": 5.1, "unit": "µM"},
      {"measurement": "K. Pneumoniae Isolate MIC, 1100770", "setting": "[5]", "value": 5.1, "unit": "µM"},
      {"measurement": "K. Pneumoniae Isolate MIC, 1100975", "setting": "[5]", "value": 3.4, "unit": "µM"},
      {"measurement": "K. Pneumoniae Isolate MIC, ATCC 43816", "setting": "[5]", "value": 6.8, "unit": "µM"},
      {"measurement": "K. Pneumoniae Isolate MIC, ATCC 700721", "setting": "[5]", "value": 6.8, "unit": "µM"},
      {"measurement": "K. Pneumoniae Isolate MIC, K6", "setting": "[5]", "value": 3.4, "unit": "µM"},
      {"measurement": "K. Pneumoniae Isolate MIC, K 6.1", "setting": "[5]", "value": 3.4, "unit": "µM"},
      {"measurement": "K. Pneumoniae Isolate MIC, K 6.2", "setting": "[5]", "value": 5.1, "unit": "µM"},
      {"measurement": "K. Pneumoniae Isolate MIC, KP 80", "setting": "[5]", "value": 3.4, "unit": "µM"},
      {"measurement": "K. Pneumoniae Isolate MIC, KP NIH 1", "setting": "[5]", "value": 6.8, "unit": "µM"},
      {"measurement": "K. Pneumoniae Isolate MIC, KP NIH 10", "setting": "[5]", "value": "> 25", "unit": "µM"},
      {"measurement": "K. Pneumoniae Isolate MIC, KP NIH 24", "setting": "[5]", "value": 6.8, "unit": "µM"},
      {"measurement": "K. Pneumoniae Isolate MIC, KP NIH 27", "setting": "[5]", "value": 3.4, "unit": "µM"},
      {"measurement": "K. Pneumoniae Isolate MIC, KP NIH 29", "setting": "[5]", "value": 2.5, "unit": "µM"},
      {"measurement": "K. Pneumoniae Isolate MIC, KP NIH 30", "setting": "[5]", "value": 3.4, "unit": "µM"},
      {"measurement": "K. Pneumoniae Isolate MIC, KP NIH 31", "setting": "[5]", "value": 3.4, "unit": "µM"},
      {"measurement": "K. Pneumoniae Isolate MIC, KP NIH 32", "setting": "[5]", "value": 6.8, "unit": "µM"},
      {"measurement": "K. Pneumoniae Isolate MIC, KP NIH 33", "setting": "[5]", "value": 1.3, "unit": "µM"},
      {"measurement": "K. pneumoniae isolates susceptible", "setting": "[6]", "value": "28 of 29"}
    ]}
  ]
}
